How the values were obtained:
[1] = molecular target: T1, Glucocorticoid receptor (Homo sapiens, UniProt P04150); test: Displacement of [3H]dexamethasone from human glucocorticoid receptor expressed in baculovirus infected Sf9 cells after overnight incubation by scintillation counting
T1 sequence (P04150 whole entry): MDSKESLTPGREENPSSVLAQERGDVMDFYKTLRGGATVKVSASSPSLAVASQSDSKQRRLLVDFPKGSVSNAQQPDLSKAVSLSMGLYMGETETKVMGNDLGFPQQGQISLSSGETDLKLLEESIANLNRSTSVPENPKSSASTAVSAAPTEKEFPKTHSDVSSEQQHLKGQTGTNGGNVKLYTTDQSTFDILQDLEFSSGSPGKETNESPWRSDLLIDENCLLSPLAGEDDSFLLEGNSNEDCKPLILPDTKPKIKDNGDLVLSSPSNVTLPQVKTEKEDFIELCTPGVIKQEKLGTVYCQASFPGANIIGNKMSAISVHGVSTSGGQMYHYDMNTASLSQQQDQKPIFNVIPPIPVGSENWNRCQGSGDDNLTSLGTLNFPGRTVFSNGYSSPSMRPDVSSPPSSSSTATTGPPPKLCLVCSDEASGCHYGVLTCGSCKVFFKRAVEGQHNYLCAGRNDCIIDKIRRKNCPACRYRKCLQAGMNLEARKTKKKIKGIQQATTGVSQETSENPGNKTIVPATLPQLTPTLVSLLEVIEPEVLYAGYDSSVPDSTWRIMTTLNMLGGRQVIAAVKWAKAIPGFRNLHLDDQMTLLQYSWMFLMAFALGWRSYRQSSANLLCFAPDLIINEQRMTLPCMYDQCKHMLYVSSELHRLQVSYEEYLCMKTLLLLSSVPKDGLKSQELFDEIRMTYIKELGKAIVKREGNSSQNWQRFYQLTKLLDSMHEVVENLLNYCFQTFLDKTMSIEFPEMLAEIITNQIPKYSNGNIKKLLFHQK

[2] = test system: Mus musculus; test: Antihyperlipidemic activity in ob/ob mouse assessed as cholesterol level at 20 mg/kg, po administered BID for 28 days measured 16 hrs post-last dose (reference value: 331.2+/-17.9 mg/dL); format: functional
[3] = molecular target: T1, Glucocorticoid receptor; test: Antagonist activity at human glucocorticoid receptor expressed in GRAF cells assessed as inhibition of dexamethasone-induced alkaline phosphatase expression after 48 hrs by reporter gene assay; format: functional, cell-based
[4] = test system: Rattus norvegicus; test: Activation of hyphalamic-pituitary-adrenal axis in Sprague-Dawley rat assessed as change in corticosterone level at 100 mg/kg, po administered as single dose measured at 2 hrs relative to vehicle-treated control; format: organism-based; parameters: dose 100 mg/kg, route oral; settings: in vivo
[5] = test system: Mus musculus; test: Antidiabetic activity in ob/ob mouse assessed as insulin level at 20 mg/kg, po administered BID for 28 days measured 16 hrs post-last dose by ELISA (reference value: 13.6+/-2.3 ng/mL); format: functional
[6] = test system: Mus musculus; test: Antihyperlipidemic activity in ob/ob mouse assessed as free fatty acid level at 10 mg/kg, po administered BID for 28 days measured 16 hrs post-last dose (reference value: 1.96+/-0.09 mEq/L); format: functional
[7] = test system: Mus musculus; test: Antihyperlipidemic activity in ob/ob mouse assessed as cholesterol level at 10 mg/kg, po administered BID for 28 days measured 16 hrs post-last dose (reference value: 331.2+/-17.9 mg/dL); format: functional
[8] = test system: Mus musculus; test: Antidiabetic activity in ob/ob mouse assessed as Hb1Ac level at 20 mg/kg, po administered BID for 28 days measured 16 hrs post-last dose (reference value: 9.3+/-0.4%); format: functional
[9] = test system: Mus musculus; test: Antidiabetic activity in ob/ob mouse assessed as Hb1Ac level at 10 mg/kg, po administered BID for 28 days measured 16 hrs post-last dose (reference value: 9.3+/-0.4%); format: functional
[10] = test system: Mus musculus; test: Toxicity in ob/ob mouse assessed as change in body weight at 20 mg/kg, po administered BID for 28 days (reference value: 11.7+/-1.1 g); format: organism-based; parameters: dose 20 mg/kg, route oral; settings: in vivo, 672 h
[11] = test system: Mus musculus; test: Toxicity in ob/ob mouse assessed as change in body weight at 10 mg/kg, po administered BID for 28 days (reference value: 11.7+/-1.1 g); format: organism-based; parameters: dose 10 mg/kg, route oral; settings: in vivo, 672 h
[12] = test system: Mus musculus; test: Hepatotoxicity in ob/ob mouse assessed as AST level at 20 mg/kg, po administered BID for 28 days measured st 16 hrs post-last dose (reference value: 332.2+/-39.1 U/L); format: toxicity, organism-based; parameters: dose 20 mg/kg, route oral; settings: in vivo
[13] = Tmax in Sprague-Dawley rat at 20 mg/kg, po administered as single dose; format: ADME, organism-based; parameters: dose 20 mg/kg, route oral; settings: in vivo
[14] = molecular target: T2, Glucocorticoid receptor (Rattus norvegicus, UniProt P06536); test: Antagonist activity at glucocorticoid receptor in rat hepatocytes assessed as inhibition of dexamethasone-induced […] expression incubated for 30 mins prior to dexamethasone-induction measured after 4 hrs by reporter gene assay; format: functional, cell-based, Hepatocyte
T2 sequence (P06536 whole entry): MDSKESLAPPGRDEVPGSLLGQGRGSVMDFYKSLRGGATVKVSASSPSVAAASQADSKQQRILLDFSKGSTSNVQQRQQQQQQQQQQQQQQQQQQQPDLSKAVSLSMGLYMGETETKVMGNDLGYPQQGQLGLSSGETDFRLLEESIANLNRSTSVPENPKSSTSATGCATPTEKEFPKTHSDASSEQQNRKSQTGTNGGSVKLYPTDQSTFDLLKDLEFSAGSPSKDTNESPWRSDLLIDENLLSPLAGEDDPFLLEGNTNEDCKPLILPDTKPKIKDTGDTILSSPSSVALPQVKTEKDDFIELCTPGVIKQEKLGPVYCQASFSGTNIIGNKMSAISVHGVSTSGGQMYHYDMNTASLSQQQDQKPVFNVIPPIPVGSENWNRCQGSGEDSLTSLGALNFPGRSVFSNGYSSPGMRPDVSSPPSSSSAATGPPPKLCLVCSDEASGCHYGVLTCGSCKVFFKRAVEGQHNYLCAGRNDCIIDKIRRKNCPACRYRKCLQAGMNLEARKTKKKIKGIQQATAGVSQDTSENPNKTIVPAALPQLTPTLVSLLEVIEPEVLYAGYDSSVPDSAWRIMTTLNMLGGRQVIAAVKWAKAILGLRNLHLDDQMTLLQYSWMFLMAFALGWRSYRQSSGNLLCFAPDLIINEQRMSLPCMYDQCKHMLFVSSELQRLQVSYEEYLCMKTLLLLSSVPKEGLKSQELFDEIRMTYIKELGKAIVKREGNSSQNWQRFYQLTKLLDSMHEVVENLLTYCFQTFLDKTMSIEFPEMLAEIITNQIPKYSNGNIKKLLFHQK

[15] = test system: Rattus norvegicus; test: Activation of hyphalamic-pituitary-adrenal axis in Sprague-Dawley rat assessed as change in ACTH level at 100 mg/kg, po administered as single dose measured at 2 hrs by ELISA relative to vehicle-treated control; format: organism-based; parameters: dose 100 mg/kg, route oral; settings: in vivo
[16] = test system: Mus musculus; test: Antihyperlipidemic activity in ob/ob mouse assessed as triglyceride level at 10 mg/kg, po administered BID for 28 days measured 16 hrs post-last dose (reference value: 292.5+/-17.5 mg/dL); format: functional
[17] = Ratio of drug uptake in liver to plasma in Sprague-Dawley rat at 20 mg/kg, po administered as single dose; format: ADME, organism-based; parameters: dose 20 mg/kg, route oral
[18] = test system: Mus musculus; test: Antidiabetic activity in ob/ob mouse assessed as insulin level at 10 mg/kg, po administered BID for 28 days measured 16 hrs post-last dose by ELISA (reference value: 13.6+/-2.3 ng/mL); format: functional
[19] = test system: Mus musculus; test: Hepatotoxicity in ob/ob mouse assessed as ALT level at 10 mg/kg, po administered BID for 28 days measured st 16 hrs post-last dose (reference value: 259.4+/-18.6 U/L); format: toxicity, organism-based; parameters: dose 10 mg/kg, route oral; settings: in vivo
[20] = test system: Mus musculus; test: Antihyperlipidemic activity in ob/ob mouse assessed as triglyceride level at 20 mg/kg, po administered BID for 28 days measured 16 hrs post-last dose (reference value: 292.5+/-17.5 mg/dL); format: functional
[21] = AUC in Sprague-Dawley rat at 20 mg/kg, iv administered as single dose; format: ADME, organism-based; parameters: dose 20 mg/kg, route intravenous; settings: plasma
[22] = test system: Mus musculus; test: Antidiabetic activity in po dosed ob/ob mouse assessed as decrease in post-prandial blood glucose level administered BID for 28 days measured 16 hrs post-last dose; format: functional, organism-based
[23] = test system: Mus musculus; test: Antidiabetic activity in ob/ob mouse assessed as decrease in post-prandial blood glucose level at 10 mg/kg, po administered BID for 28 days measured 16 hrs post-last dose relative to vehicle-treated control; format: functional; parameters: scale not given: the % may be the effect or the level left
[24] = test system: Mus musculus; test: Hepatotoxicity in ob/ob mouse assessed as ALT level at 20 mg/kg, po administered BID for 28 days measured st 16 hrs post-last dose (reference value: 259.4+/-18.6 U/L); format: toxicity, organism-based; parameters: dose 20 mg/kg, route oral; settings: in vivo
[25] = Drug uptake in Sprague-Dawley rat liver at 20 mg/kg, po administered as single dose measured at 0.5 hrs; format: ADME, organism-based; parameters: dose 20 mg/kg, route oral; settings: read-out: Drug uptake
[26] = Oral bioavailability in Sprague-Dawley rat; format: ADME, organism-based; settings: in vivo
[27] = test system: Mus musculus; test: Hepatotoxicity in ob/ob mouse assessed as AST level at 10 mg/kg, po administered BID for 28 days measured st 16 hrs post-last dose (reference value: 332.2+/-39.1 U/L); format: toxicity, organism-based; parameters: dose 10 mg/kg, route oral; settings: in vivo
[28] = test system: Mus musculus; test: Antidiabetic activity in ob/ob mouse assessed as decrease in post-prandial blood glucose level at 20 mg/kg, po administered BID for 28 days measured 16 hrs post-last dose relative to vehicle-treated control; format: functional; parameters: scale not given: the % may be the effect or the level left
[29] = test system: Mus musculus; test: Antihyperlipidemic activity in ob/ob mouse assessed as free fatty acid level at 20 mg/kg, po administered BID for 28 days measured 16 hrs post-last dose (reference value: 1.96+/-0.09 mEq/L); format: functional
[30] = Cmax in Sprague-Dawley rat at 20 mg/kg, po administered as single dose; format: ADME, organism-based; parameters: dose 20 mg/kg, route oral; settings: in vivo
[31] = AUC (0 to infinity) in Sprague-Dawley rat at 20 mg/kg, po administered as single dose; format: ADME, organism-based; parameters: time infinity, dose 20 mg/kg, route oral; settings: plasma
[32] = Half life in Sprague-Dawley rat at 20 mg/kg, po administered as single dose; format: ADME, organism-based; parameters: dose 20 mg/kg, route oral; settings: in vivo

Compound: O=C(O)Cc1ccc(N(Cc2ccccc2)Cc2ccc(Oc3ccccc3)cc2)cc1
- IC50 [1]: 1910 nM

Compound: O=C(O)Cc1cc(Br)c(N(Cc2ccc(Oc3ccc(F)cc3F)cc2)Cc2cc(F)cc(F)c2)c(Br)c1
- Activity [2]: 219.5 mg/dL
- IC50 [3]: 211 nM
- Activity [4]: Non-toxic
- Activity [5]: 12.3 ng/mL
- Activity [6]: 1.32 mEq/L
- Activity [7]: 266.6 mg/dL
- Activity [8]: 6%
- Activity [9]: 6.7%
- Activity [10]: 10.9 g
- Activity [11]: 11.9 g
- Activity [12]: 353.2 U/L
- Tmax [13]: 0.51 h
- IC50 [14]: 900 nM
- Activity [15]: Non-toxic
- Activity [16]: 214.3 mg/dL
- Kp [17]: 24.8
- Activity [18]: 14.1 ng/mL
- Activity [19]: 261 U/L
- Activity [20]: 173.5 mg/dL
- AUC [21]: 13000 ng·h/mL
- Activity [22]: Dose-dependent effect
- Activity [23]: 32%
- Activity [24]: 247.5 U/L
- concentration at 0.5 h [25]: 21800 ng/mL
- bioavailability [26]: 10.7%
- IC50 [1]: 4.5 nM
- Activity [27]: 345.3 U/L
- Activity [28]: 42%
- Activity [29]: 1.17 mEq/L
- Cmax [30]: 880 ng/mL
- AUC(0-inf) [31]: 1390 ng·h/mL
- half-life [32]: 5.96 h

Compound: O=C(O)Cc1cc(Br)c(N(Cc2ccc(Oc3ccccc3)cc2)Cc2cccc(F)c2)c(Br)c1
- IC50 [1]: 820 nM

Compound: O=C(O)Cc1cc(Br)c(N(Cc2ccc(Oc3ccccc3Br)cc2)Cc2cc(F)cc(F)c2)c(Br)c1
- IC50 [3]: 1170 nM
- IC50 [14]: > 10000 nM
- IC50 [1]: 801 nM

Compound: O=C(O)Cc1cc(Br)c(N(Cc2ccc(Oc3ccc(Cl)cc3Cl)cc2)Cc2cc(F)cc(F)c2)c(Br)c1
- IC50 [3]: 391 nM
- IC50 [14]: 2600 nM
- IC50 [1]: 96 nM

Compound: O=C(O)c1ccc(N(Cc2ccccc2)Cc2ccc(Oc3ccccc3)cc2)cc1
- IC50 [1]: > 9000 nM

Compound: COc1ccc(Oc2ccc(CN(Cc3cc(F)cc(F)c3)c3c(Br)cc(CC(=O)O)cc3Br)cc2)c(OC)c1
- IC50 [1]: 1600 nM

Compound: Cc1ccc(Oc2ccc(CN(Cc3cc(F)cc(F)c3)c3c(Br)cc(CC(=O)O)cc3Br)cc2)c(C)c1
- IC50 [1]: 1640 nM

Compound: Cc1ccccc1Oc1ccc(CN(Cc2cc(F)cc(F)c2)c2c(Br)cc(CC(=O)O)cc2Br)cc1
- IC50 [1]: 1280 nM

Compound: O=C(O)Cc1cc(Br)c(N(Cc2ccc(Oc3ccccc3C(F)(F)F)cc2)Cc2cc(F)cc(F)c2)c(Br)c1
- IC50 [3]: 598 nM
- IC50 [14]: 3300 nM
- IC50 [1]: 298 nM

Reference: ChEMBL document CHEMBL2086309, “Discovery of liver selective non-steroidal glucocorticoid receptor antagonist as novel antidiabetic agents” (Bioorg Med Chem Lett, 2012)
